Patent US6605308B2, “Pathogen management system” (Tomoco2 Equipment Company, priority 2001, dated 2003)
Read-outs that look alike come from different tables or passages of the source.

Tests used:
Listeria monocytogenes = conditions: 8% TSP, 10 minutes, room temperature, colony grown on a surface with biofilm; cited from earlier work
Salmonella = Salmonella in chiller water, plant test at Springdale, Ark.
[1] = cited from earlier work
microorganisms = conditions: versus OCl-; cited from earlier work
Coliform = Coliform on carcass after IOBW, Natchitoches, La.; conditions: standard nozzles, 13 seconds of wash time
E-Coli [2] = test: E-Coli testing at immersion chiller, plant test at Dallas, Tex.
E-Coli [3] = test: E-Coli testing at chiller system, Natchitoches, La.
pathogens = test: Initial one-control-point testing at the immersion chillers, chiller water samples
Description: In a preferred embodiment, a hypochlorous acid stream is used in more than one discrete location along a poultry processing line, although preliminary investigations for pathogens began as a one-control point approach in the process at the immersion chillers.
Samples of chiller water determined that it was sterilized with hypochlorous acid. It appeared that the disinfecting capabilities were maximized at the chiller.

APC = APC on carcass after IOBW, Natchitoches, La.; conditions: standard nozzles, 13 seconds of wash time
E-Coli [4] = test: E-Coli on carcass after IOBW, Natchitoches, La.; conditions: standard nozzles, 13 seconds of wash time
Method: More tests are being conducted at a facility in Natchitoches, La. The project began by adding hypochlorous acid to the IOBW on-line. Tests were performed on the carcass before and after the IOBW. APC, Coliform and E-Coli test were run on the carcass. Average APC of the carcass entering the IOBW was 90,559 cfu/ml, Coliform of 2,103 cfu/ml and E-Coli of 1,429 cfu/ml. After adding hypochlorous acid to the existing IOBW, using standard nozzles, a major reduction in the numbers was found. The average APC was 12,792, Coliform 664 cfu/ml and E. coli 383 cfu/ml. This was only with 13 seconds of wash time.

[5] = December, 121 samples so far, chiller plus pick/kill room system
[6] = July, 254 samples, system on chiller
[7] = November, 251 samples, chiller plus pick/kill room system

In the case of `O=P([O-])([O-])[O-].[Na+].[Na+].[Na+]` [TSP, Trisodium phosphate], the “reduction of bacterial numbers” value (Listeria monocytogenes) is listed as 1 log10.
For `[Ca+2].[O-]Cl.[O-]Cl` [calcium hypochlorite solution, calcium hypochlorite], the “reduction in Salmonella” value (Salmonella) was 40% and the “samples returned with a positive result of Salmonella” value (Salmonella; of 83 samples, four weeks, injected into chiller recirculation lines without pH control) was 16 samples.
For `OCl` [hypochlorous acid], the “Percent HOCl” value ([1]; pH 5.0, 0 °C) is listed as 99.85%, the “Percent HOCl” value ([1]; pH 5.0, 5 °C) is listed as 99.83% and the “Percent HOCl” value ([1]; pH 5.0, 10 °C) is listed as 99.80%. For the same molecule, the “Percent HOCl” value ([1]; pH 5.0, 15 °C) was 99.77%, the “Percent HOCl” value ([1]; pH 5.0, 20 °C) was 99.74% and the “Percent HOCl” value ([1]; pH 5.0, 25 °C) was 99.71%. For the same molecule, the “Percent HOCl” value ([1]; pH 5.0, 30 °C) was 99.68%, the “Percent HOCl” value ([1]; pH 5.5, 0 °C) was 99.53% and the “Percent HOCl” value ([1]; pH 5.5, 5 °C) was 99.75%. The “Percent HOCl” value ([1]; pH 5.5, 10 °C) was 99.36%, the “Percent HOCl” value ([1]; pH 5.5, 15 °C) was 99.27% and the “Percent HOCl” value ([1]; pH 5.5, 20 °C) was 99.18%. The “Percent HOCl” value ([1]; pH 5.5, 25 °C) was 99.09%, the “Percent HOCl” value ([1]; pH 5.5, 30 °C) was 99.01% and the “Percent HOCl” value ([1]; pH 6.0, 0 °C) was 98.53%. The “Percent HOCl” value ([1]; pH 6.0, 5 °C) was 98.28%, the “Percent HOCl” value ([1]; pH 6.0, 10 °C) was 98.01% and the “Percent HOCl” value ([1]; pH 6.0, 15 °C) was 97.73%. For the same molecule, the “Percent HOCl” value ([1]; pH 6.0, 20 °C) was 97.45%, the “Percent HOCl” value ([1]; pH 6.0, 25 °C) was 97.18% and the “Percent HOCl” value ([1]; pH 6.0, 30 °C) was 96.92%. For the same molecule, the “Percent HOCl” value ([1]; pH 7.0, 0 °C) was 87.05%, the “Percent HOCl” value ([1]; pH 7.0, 5 °C) was 85.08% and the “Percent HOCl” value ([1]; pH 7.0, 10 °C) was 83.11%. For the same molecule, the “Percent HOCl” value ([1]; pH 7.0, 15 °C) was 81.17%, the “Percent HOCl” value ([1]; pH 7.0, 20 °C) was 79.23% and the “Percent HOCl” value ([1]; pH 7.0, 25 °C) was 77.53%. The “Percent HOCl” value ([1]; pH 7.0, 30 °C) was 75.90%, the “Percent HOCl” value ([1]; pH 8.0, 0 °C) was 40.19% and the “Percent HOCl” value ([1]; pH 8.0, 5 °C) was 36.32%. For the same molecule, the “Percent HOCl” value ([1]; pH 8.0, 10 °C) was 32.98%, the “Percent HOCl” value ([1]; pH 8.0, 15 °C) was 30.12% and the “Percent HOCl” value ([1]; pH 8.0, 20 °C) was 27.62%. For the same molecule, the “Percent HOCl” value ([1]; pH 8.0, 25 °C) was 25.65%, the “Percent HOCl” value ([1]; pH 8.0, 30 °C) was 23.95% and the “Percent HOCl” value ([1]; pH 9.0, 0 °C) was 6.30%. For the same molecule, the “Percent HOCl” value ([1]; pH 9.0, 5 °C) was 5.40%, the “Percent HOCl” value ([1]; pH 9.0, 10 °C) was 4.69% and the “Percent HOCl” value ([1]; pH 9.0, 15 °C) was 4.13%. For the same molecule, the “Percent HOCl” value ([1]; pH 9.0, 20 °C) was 3.68%, the “Percent HOCl” value ([1]; pH 9.0, 25 °C) was 3.34% and the “Percent HOCl” value ([1]; pH 9.0, 30 °C) was 3.05%. For the same molecule, the “Percent HOCl” value ([1]; pH 10.0, 0 °C) was 0.67%, the “Percent HOCl” value ([1]; pH 10.0, 5 °C) was 0.57% and the “Percent HOCl” value ([1]; pH 10.0, 10 °C) was 0.49%. The “Percent HOCl” value ([1]; pH 10.0, 15 °C) was 0.43%, the “Percent HOCl” value ([1]; pH 10.0, 20 °C) was 0.38% and the “Percent HOCl” value ([1]; pH 10.0, 25 °C) was 0.34%. The “Percent HOCl” value ([1]; pH 10.0, 30 °C) was 0.31%, the “Percent HOCl” value ([1]; pH 11.0, 0 °C) was 0.067% and the “Percent HOCl” value ([1]; pH 11.0, 5 °C) was 0.057%. The “Percent HOCl” value ([1]; pH 11.0, 10 °C) was 0.049%, the “Percent HOCl” value ([1]; pH 11.0, 15 °C) was 0.043% and the “Percent HOCl” value ([1]; pH 11.0, 20 °C) was 0.038%. The “Percent HOCl” value ([1]; pH 11.0, 25 °C) was 0.034%, the “Percent HOCl” value ([1]; pH 11.0, 30 °C) was 0.031% and the “effectiveness for killing microorganisms relative to OCl-” value (microorganisms) was “about 80 times”. The “average Coliform” value (Coliform) was 664 cfu/ml, the E-Coli detection rate (E-Coli [2]; April) was 14% and the “samples below 100 cfu/ml” value (E-Coli [2]; April) was 99%. The “samples with E-Coli detected” value (E-Coli [2]; April, of 264 samples) was 37 samples, the E-Coli detection rate (E-Coli [2]; March) was 28% and the “samples below 100 cfu/ml” value (E-Coli [2]; March) was 83%. For the same molecule, the “samples with E-Coli detected” value (E-Coli [2]; March, of 264 samples) was 76 samples, the E-Coli detection rate (E-Coli [2]; May) was 8% and the “samples below 100 cfu/ml” value (E-Coli [2]; May) was 100%. For the same molecule, the “samples with E-Coli detected” value (E-Coli [2]; May, of 276 samples) was 23 samples, the “samples over 10 cfu/ml” value (E-Coli [3]; [5]) was 28% and the “samples over 100 cfu/ml (number)” value (E-Coli [3]; [5]) was “two”. For the same molecule, the “samples over 10 cfu/ml” value (E-Coli [3]; [6]) was 38%, the “samples over 100 cfu/ml” value (E-Coli [3]; [6]) was 5% and the “samples over 10 cfu/ml” value (E-Coli [3]; [7]) was 20%. The “samples over 100 cfu/ml (number)” value (E-Coli [3]; [7]) was “one”, the “state of chiller water samples” value (pathogens) was “sterilized” and the “average APC” value (APC) was 12,792 cfu/ml. The “average E. coli” value (E-Coli [4]) was 383 cfu/ml and the “samples returned positive (Salmonella)” value (Salmonella; of 41 samples over three weeks, 98% hypochlorous acid solution injected into chiller recirculation lines) was 2 samples.
